“And” between values parts separate entries of the source, which are not always exact repeats. Equal entries are not always repeated. “Also recorded” adds a separate entry of the source.
Key:
Assay in all cases: Phenotypic susceptibility assay (site directed mutant RTV)
Format in all cases: cell-based, HIV-1
[1] = system: G190S-RTV; conditions: for change in susceptibility (fold, IC50) vs wild type control RTV: G190S alone, below 1 = increased susceptibility; for change in susceptibility: serine at position 190, no other NNRTI mutations
Text: (§1) The resistance test vectors containing a functional luciferase gene cassette were constructed and host cells were transfected with the resistance test vector DNA. The resistant test vectors contained patient-derived reverse transcriptase and protease sequences that were either susceptible or resistant to the antiretroviral agents, such as nucleoside reverse transcriptase inhibitors, non-nucleoside reverse transcriptase inhibitors and protease inhibitors. The resistance test vector viral particles produced by transfecting the resistance test vector DNA into host cells, either in the presence or absence of protease inhibitors, were used to infect target host cells grown either in the absence of NRTI or NNRTI or in the presence of increasing concentrations of the drug. The amount of luciferase activity produced in infected target host cells in the presence of drug was compared to the amount of luciferase produced in infected target host cells in the absence of drug. Drug resistance was measured as the amount of drug required to inhibit by 50% the luciferase activity detected in the absence of drug (inhibitory concentration 50%, IC50). The IC50 values were determined by plotting percent drug inhibition vs. log10 drug concentration.
(§2) Host cells were seeded in 10-cm-diameter dishes and were transfected several days after plating with resistance test vector plasmid DNA and the envelope expression vector. Transfections were performed using a calcium-phosphate precipitation procedure. The cell culture media containing the DNA precipitate was replaced with fresh medium, from one to 24 hours, after transfection. Cell culture media containing resistance test vector viral particles was harvested one to four days after transfection and was passed through a […] filter before being stored at […]. HIV capsid protein (p24) levels in the harvested cell culture media were determined by an EIA method as described by the manufacturer (SIAC; Frederick, Md.). Before infection, target cells (293 and 293/T) were plated in cell culture media. Control infections were performed using cell culture media from mock transfections (no DNA) or transfections containing the resistance test vector plasmid DNA without the envelope expression plasmid. One to three or more days after infection the media was removed and cell lysis buffer (Promega) was added to each well. Cell lysates were assayed for luciferase activity (FIG. 3). The inhibitory effect of the drug was determined using the following equation: % luciferase inhibition=1−(RLUluc [drug]÷RLUluc)×100 where RLUluc [drug] is the relative light unit of luciferase activity in infected cells in the presence of drug and RLUluc is the Relative Light Unit of luciferase activity in infected cells in the absence of drug. IC50 values were obtained from the sigmoidal curves that were generated from the data by plotting the percent inhibition of luciferase activity vs. the log10 drug concentration. The drug inhibition curves are shown in (FIG. 3).
Resistance test vectors were constructed containing the G190S and G190A mutations. Mutations were introduced into the resistance test vector using the mega-primer PCR method for site-directed mutagenesis (Sakar and Sommar, Ibid.) Resistance test vectors containing the G190S or G190A mutations (G190S-RTV, or G190A-RTV) were tested using the phenotypic susceptibility assay and the results were compared to that of a genetically defined resistance test vector that was wild type at position G190. […]

[2] = system: Y188L-RTV; conditions: for loss of susceptibility (fold, IC50) vs wild type control RTV: Y188L alone; for change in susceptibility: mutation at codon 188
Text: as §1, §2
The Y188L mutation was introduced into the resistance test vector using the mega-primer method for site-directed mutagenesis (Sakar and Sommar, Ibid.). A resistance test vector containing the Y188L mutation (Y188L-RTV) was then tested using the phenotypic assay described earlier and the results were compared to those determined using a genetically defined resistance test vector that was wild type at position 188. We determined the pattern of phenotypic susceptibility to the NNRTIs, delavirdine, nevirapine and efavirenz, in the Y188L-RTV. […] The approximate 100-fold loss of susceptibility to efavirenz was not as high as had been previously reported.

[3] = system: A98G-RTV; conditions: for loss of susceptibility (fold, IC50) vs wild type control RTV: A98G alone; for change in susceptibility: mutation at codon 98
Text: as §1, §2
The A98G mutation into the resistance test vector using the mega-primer method for site-directed mutagenesis (Sakar and Sommar, Ibid.). A resistance test vector containing the A98G mutation (A98G-RTV) was then tested using the phenotypic assay described earlier and the results were compared to those determined using a genetically defined resistance test vector that was wild type at position 98. We determined the pattern of phenotypic susceptibility to the NNRTIs, delavirdine, nevirapine and efavirenz, in the A98G-RTV.

[4] = system: A98G-G190S-RTV; conditions: for change in susceptibility (fold, IC50) vs wild type control RTV: A98G and G190S, below 1 = increased susceptibility; for change in susceptibility: mutations at codons 98 and 190
Text: as §1, §2
The A98 and G190S mutations were introduced alone or in combination into the resistance test vector using the mega-primer method for site-directed mutagenesis (Sakar and Sommar, Ibid.). Resistance test vectors containing the A98G mutation (A98G-RTV), the G190S mutation (G190S-RTV) and both mutations (A98G-G190S-RTV) were then tested using the phenotypic assay described earlier and the results were compared to those determined using a genetically defined resistance test vector that was wild type at position 98 and 190. We determined the pattern of phenotypic susceptibility to the NNRTIs, delavirdine, nevirapine and efavirenz, in the three vectors.

[5] = system: Y181C-RTV; conditions: for change in susceptibility: Y181C, FIG. 5
Text: as §1, with “Drug resistance was measured as the amount of drug required to inhibit by 50% the luciferase activity detected in the absence of drug (inhibitory concentration 50%, IC50).” left out
Host cells were seeded in 10-cm-diameter dishes and were transfected several days after plating with resistance test vector plasmid DNA and the envelope expression vector. […] HIV capsid protein (p24) levels in the harvested cell culture media were determined by an EIA method as described by the manufacturer (SIAC; Frederick, Md.). […] The inhibitory effect of the drug was determined using the following equation: % luciferase inhibition=1−(RLUluc [drug]÷RLUluc)×100 where RLUluc [drug] is the relative light unit of luciferase activity in infected cells in the presence of drug and RLUluc is the Relative Light Unit of luciferase activity in infected cells in the absence of drug. […]
The Y181C and A98G mutations were introduced alone and in combination into resistance test vectors using the mega-primer method for site-directed mutagenesis (Sakar and Sommar, Ibid.). […] We determined the pattern of phenotypic susceptibility to the NNRTIs, delavirdine, neviraphine and efavirenz, in the three vectors. […]

[6] = system: V108I-RTV; conditions: for change in susceptibility (fold, IC50) vs wild type control RTV: V108I alone; for change in susceptibility: mutation at codon 108
Text: as §1, §2
The V108I mutation was introduced into the resistance test vector using the mega-primer method for site directed mutagenesis (Sakar and Sommar, Ibid.). A resistance test vector containing the V108I mutation (V108I-RTV) was then tested using the phenotypic assay described earlier and the results were compared to those determined using a genetically defined resistance test vector that was wild type at position 108. We determined the pattern of phenotypic susceptibility to the NNRTIs, delaviridine, nevirapine and efavirenz, in the V108I-RTV.

[7] = system: K103N-RTV; conditions: for change in susceptibility: K103N; for loss of susceptibility (fold, IC50) vs wild type control RTV: K103N alone
Text: as §1, §2
The K101E, K103N and G190A mutations were introduced alone and in combination into resistance test vectors using the mega-primer method for site-directed mutagenesis (Sakar and Sommar, Ibid.).
The mutations Y188L, L100I and K103N were introduced alone and in combinationn into resistance test vectors using the mega-primer method for site-directed mutagenesis (Sakar and Sommar, Ibid.).

| Structure (SMILES) | change in susceptibility (fold, IC50) vs wild type control RTV [1] | change in susceptibility [1] | loss of susceptibility (fold, IC50) vs wild type control RTV [2] | change in susceptibility [2] | loss of susceptibility (fold, IC50) vs wild type control RTV [3] [fold] | change in susceptibility [3] | change in susceptibility (fold, IC50) vs wild type control RTV [4] | change in susceptibility [4] | change in susceptibility [5] | change in susceptibility (fold, IC50) vs wild type control RTV [6] [fold] | change in susceptibility [6] | change in susceptibility [7] | loss of susceptibility (fold, IC50) vs wild type control RTV [7] [fold] | loss of susceptibility (fold, IC50) vs wild type control RTV ([5]; Y181C alone) |
| --- | --- | --- | --- | --- | --- | --- | --- | --- | --- | --- | --- | --- | --- | --- |
| CC(C)Nc1cccnc1N1CCN(C(=O)c2cc3cc(NS(C)(=O)=O)ccc3[nH]2)CC1 [delavirdine] | 0.5 fold | increase | 9 fold | slight decrease | 3 | slight decrease | 0.8 fold | increase | resistance | 1.3 | no change | reduced susceptibility; also recorded: resistance | 50 | – |
| O=C1Nc2ccc(Cl)cc2[C@@](C#CC2CC2)(C(F)(F)F)O1 [efavirenz] | 8 fold and 7.6 fold | – | 109 fold and ~100 fold and 110 fold | significant decrease | 3 | slight decrease | greater than 250 fold | substantial decrease | – | 1.7 | no change | – | 30 | 3 fold and 4 fold |
| Cc1ccnc2c1NC(=O)c1cccnc1N2C1CC1 [nevirapine] | 75 fold | decrease | greater than 800 fold | substantial decrease | 8 | slight decrease | greater than 800 fold | substantial decrease | resistance | 3 | slight decrease | reduced susceptibility; also recorded: resistance | 55 | – |

— patent US7037644B1, “Means and methods for monitoring non-nucleoside reverse transcriptase inhibitor antiretroviral therapy and guiding therapeutic decisions in the treatment of HIV/AIDS” (ViroLogic, Inc., priority 1998, dated 2006)
